# Laboratory results: PMC11984407, “A natural small molecule isoginkgetin alleviates hypercholesterolemia and atherosclerosis by targeting ACLY” (Theranostics, 2025)
# Legend:
# [1] = test system: high and very high cardiovascular risk patients intolerant to statins; parameters: method as in PMID 36876740; conditions: statin-intolerant patients, LDL-C ≥100 mg/dL; cited from earlier work
# rhesus monkeys = test system: rhesus monkeys; parameters: method as in PMID 36873173; conditions: two weeks; cited from earlier work
# [2] = Copper-induced LDL oxidation, agarose gel electrophoresis; conditions: varying concentrations, copper 5 μM
# Protocol: Prior to oxidation, EDTA was removed from LDL solutions (YB-001; Yiyuan Biotechnologies, Guangzhou, China). Subsequently, LDL solutions at a concentration of 0.2 mg/mL were incubated with varying concentrations of ISOGK in PBS for one h at 37 °C. The oxidation process was initiated by combining both native LDL and LDL pretreated with ISOGK with copper sulfate (99.0% purity; Jinshanting New Chemical Reagent Factory, Shanghai, China) to achieve a final copper concentration of 5 μM in PBS. This mixture was then incubated at 37 °C. Agarose gel electrophoresis was performed utilizing 0.5% agarose gels prepared in a sodium barbital buffer, following the stipulated electrophoretic methodology. The procedure was carried out in a 0.075 M sodium barbital buffer at a constant voltage of 55 V for a duration of one h. The relative electrophoretic mobility (REM) was determined by calculating the ratio of the migration distance of oxidized LDL to that of native LDL.
compound,measurement,setting,value
"CC(C)(CCCCCC(O)CCCCCC(C)(C)C(=O)O)C(=O)O [Bempedoic acid, bempedoic acid]",primary composite endpoint vs placebo,[1],slight reduction in the primary composite endpoint
CC(C)c1c(C(=O)Nc2ccccc2)c(-c2ccccc2)c(-c2ccc(F)cc2)n1CC[C@@H](O)C[C@@H](O)CC(=O)O [atorvastatin],LDL-C reduction from the baseline,rhesus monkeys,19.4%
Vitamin E [reference compound],antioxidant activity against copper-induced LDL oxidation (REM),[2],retards LDL
